Series [1] concerns MC38 cells. Put plainly: Direct cytotoxic/radiosensitizing effect of RA on cultured tumor cells. The following applies: RA 0 nM to 2000 nM after IR 0 Gy to 15 Gy, three days. The series is classed as cell-based, mouse. The protocol: To determine whether RA has direct cytotoxic and/or radiosensitizing effects on tumor cells, MC38 cells were cultured with RA (0 nM to 2000 nM) after IR (0 Gy to 15 Gy) for three days. […] Since both IR and RA regulate immune responses, studies were conducted to examine how the combination treatment changes the tumor immune environment. Using a multiplex assay, the level of chemokines and cytokines in tumors three days after treatment was determined. Following IR+RA treatment, increased levels of CCL2, CCL3, CCL4 and CCL5 (by 2-fold to 3-fold compared to levels in any single treatment), which are involved in monocyte recruitment, were observed. GM-CSF, a critical cytokine for DC generation, increased by more than 5-fold in whole tumor homogenates.

Series [2] has as its system CT26 tumor. The experiment in a line: ATRA-sensitized fractionated radiotherapy in CT26 tumor bearing BALB/c mice. The series is classed as in vivo, mouse. The note with it: 6 fractions. The method, then:
2×10^6 CT26 cells were subcutaneously injected into the right flanks of BALB/c mice. When the tumors reached 100-120 mm^3 in volume, ATRA in corn oil (400 μg/each) was daily administrated via oral gavage. After administration, mice were anaesthetized with 2% (v/v) isoflurane and the tumors were irradiated daily with X-ray at a dose of 1 Gy/fraction (225 kVp, 13 mA, 0.3 mm-Cu filter) for a total of 6 fractions on six consecutive days. Oil (equal volume/each) was daily administrated with or without irradiation as a control. The tumor size was measured with a caliper every day and the tumor volume calculated as 0.5×length×width 2. All the mice were sacrificed when the tumors reached about 2000 mm^3.

The test system of series [3] is MC38 cells. Put plainly: Tumor re-challenge of cured mice with MC38 cells. The note with it: mice cured by IR+RA, re-challenged with 5×10^6 MC38 cells. The series is classed as in vivo, mouse. The protocol:
(§1) 1×10^6 MC38, B16/F1, Renca or CT26 cells were subcutaneously implanted into flanks of mice. Tumors were irradiated using a Phillips IR250 orthovoltage X-ray generator (Phillips, Amsterdam, the Netherlands) operating at 250 kV 15 mA. Subcutaneous local tumors were irradiated by shielding bodies with a cylindrical lead cover with only flank tumors exposed for radiation. ATRA (400 μg/mice/day) was administered by oral gavage for 10 days. For the two-tumor model, 1×10^6 and 0.7×10^6 MC38 cells were subcutaneously implanted into the right and left flank of mice respectively. For the tumor re-challenge assay, both the cured mice and the naive mice were re-challenged with 5×10^6 MC38 or 1×10^6 LLC cells respectively. Tumors were measured along two diameters (length and width) and depth twice weekly and volumes were calculated as length×width×depth/2. For CD8 and CD4 T cell depletion experiments, 200 μg antibodies were injected i.p. on day 0, 2, 5 and 8 after radiation. Anti-CD11b antibody was injected i.p. every two days starting 1 day before radiation. Anti-PD-L1 antibody was administered i.p. on day 0, 3, and 7 after radiation at 200 μg/mouse. Anti-IFN-γ was administered i.p. at 500 μg/mouse every 7 days. Anti-NK1.1 antibody was administered via i.p. at 25 μg/mouse every 3 days for 3 doses. Anti-GM-CSF antibody was given by i.p. injection at 250 μg/mouse every 2 days. […]

In series [4] the test system is non-irradiated MC38 tumors. The experiment in a line: MC38 two-tumor model, growth of non-irradiated tumors (abscopal effect). The series is classed as in vivo, mouse. The note with it: RA and IR treatment of primary tumor compared to any single treatment. The protocol: as §1
Series [5] relates to MC38 cell antigen-specific CD8+ T cells. The experiment in a line: ELISPOT assay for IFN-γ-secreting CD8+ T cells. The series is classed as in vivo, mouse. The method, then:
MC38 cells were irradiated (40 Gy) and cultured overnight. CD8^+ T cells were isolated with EasySep mouse CD8+ positive selection kit (18953, STEMCELL Technologies, Vancouver, Canada) from draining lymph nodes of tumor-bearing mice on day 8 after treatment. 2×10^5 isolated CD8^+ T cells and 2×10^4 irradiated MC38 cells were plated onto 96-well PVDF-backed microplates coated with monoclonal antibody specific for mouse IFN-γ for 72 hours. Spots were developed by following the manufacturer's protocol (BD Biosciences, Franklin Lakes, New Jersey, United States of America).

Series [6] deals with LLC cells. Put plainly: Tumor re-challenge of cured mice with LLC cells. The series is classed as in vivo, mouse. The note with it: mice cured by IR+RA vs naive mice, 1×10^6 LLC cells. The method, then:
as §1

Series [7] relates to chemokines and cytokines in tumors. The experiment in a line: Multiplex cytokine/chemokine assay of tumor homogenates. The series is classed as in vivo, mouse. The method, then:
Whole tumors were excised at indicated time point post treatment. Tumors were weighed and homogenized in PBS with the presence of protease inhibitor cocktails at a ratio of 1 ml per gram of tissue. 25 μl of supernatants were subjected to a bead-based cytokine and chemokine assay (a mouse inflammation panel and chemokine panel sold under the tradename LEGENDPLEX™ (BioLegend, San Diego, California, United States of America). The assays were analyzed using a LSRII flow cytometer and software sold under the tradename LEGENDPLEX™ (both from BioLegend, San Diego, California, United States of America). IFN-γ was measured using IFN-γ flex CBA set (BD Biosciences, Franklin Lakes, New Jersey, United States of America). TNF-α concentration was measured using ELISA kit from R&D Systems (MTA00B; Minneapolis, Minnesota, United States of America). For nitrite assay, equal weight of tumors were cut into pieces and cultured in DMEM medium for 2 hours. The production of NO in the supernatants was measured indirectly by measuring the concentration of nitrite by using the Griess reagent nitrite measurement kit (Cell Signaling Technology, Danvers, Massachusetts, United States of America; #13547).
To determine whether RA has direct cytotoxic and/or radiosensitizing effects on tumor cells, MC38 cells were cultured with RA (0 nM to 2000 nM) after IR (0 Gy to 15 Gy) for three days. […] Since both IR and RA regulate immune responses, studies were conducted to examine how the combination treatment changes the tumor immune environment. Using a multiplex assay, the level of chemokines and cytokines in tumors three days after treatment was determined.

[8] abbreviates: ATRA 400 μg/each oral gavage daily plus X-ray 1 Gy/fraction.
Setting [9] is: IR+RA compared to other treatments.

As to `CC1=C(/C=C/C(C)=C/C=C/C(C)=C/C(=O)O)C(C)(C)CCC1` [RA, all-trans retinoic acid], in series [1], the “tumor cell death in vitro” value is “no direct effects”. Moreover, in series [2] (setting [8]), the CT26 tumor growth result is on record as “regressed tumor growth” and the “mice totally free of tumors” value was 2 out of 5. Also, in series [2] (ATRA plus X-ray 1 Gy/fraction), the body weight entry is listed as “No weight loss”. The “tumor formation after re-challenge with MC38 cells” value in series [3] is given as “did not form tumors”. In addition, the “growth of non-irradiated tumors” value in series [4] was “slower growth rate”. Further, the “tumor antigen-specific CD8+ T cell priming in draining lymph nodes (IFN-γ ELISPOT)” value in series [5] (IR+RA compared to control or single treatments) was “significantly enhanced”. In addition, the “priming of CD8+ T cells from DLN of non-irradiated tumors (IFN-γ production)” value in series [5] (primary tumor received IR+RA combination treatment) is recorded as “augmented”. In addition, the “growth of LLC after re-challenge” value in series [6] is “grew at the same rate”. In addition, in series [7] (setting [9]), the “IFN-β level in tumors” value is on record as “significantly elevated”, the “IFN-γ level in tumors” value is on record as “significantly elevated”, the “IL-1 level in tumors” value was “significantly elevated” and the “IL-6 level in tumors” value is listed as “significantly elevated”. The “increase of GM-CSF in whole tumor homogenates” value in series [7] (IR+RA, three days after treatment) is reported as “more than 5 fold”. In series [7] (radiation and RA treatment), the “CXCL9 level in tumors” value is “elevated” and the “CXCL10 level in tumors” value is on record as “elevated”.

Values taken from patent US20240000741A1, “ALL-TRANS RETINOIC ACID ENHANCES RADIOTHERAPY AND OVERCOMES IMMUNE SUPPRESSION FOR CANCER THERAPY” (The University of Chicago, priority 2022, published 2024).
